The text below walks through data of patent US10077446B2, “Glucan-encapsulated siRNA for treating type 2 diabetes mellitus” (The United States of America, as represented by THE …, priority 2013, dated 2018).

One data set relates to CB1R mRNA. Briefly: CB1R gene silencing by siRNA/EP in peritoneal elicited macrophages (PEC), qPCR. It counts as cell-based, rat. Here is the method: (§1) Eight-week old ZDF rats were injected i.p. with 4% thioglycollate broth (Sigma-Aldrich). Five days following injection, the peritoneal cavity was washed with PBS and peritoneal fluid was filtered through a 70 μm diameter pore nylon mesh and centrifuged. The pellet was first treated with red blood cell lysis buffer and plated in DMEM supplemented with 10% fetal bovine serum (FBS), 50 μg/ml streptomycin and 50 units/ml penicillin. 24 hours after isolation peritoneal elicited cells (PEC) were treated with siRNA. Eighty, 160 or 240 pmoles of scrambled or CB1R siRNA (Dharmacon) was incubated with 3 nmoles EP in PBS for 15 min and added to 1×10^6 cells. 48 hours after treatment, mRNA were extracted, reversed transcribed and the degree of CB1R knock-down was analyzed by qPCR.
Total mRNA from the liver, pancreas and kidney were extracted with Trizol (Invitrogen), while total mRNA from cells was extracted using RNEASY™ Mini Kit (Qiagen). All extractions were followed by DNase I treatment (Invitrogen). Total mRNA was reverse-transcribed using the ISCRIPT™ cDNA kit (Bio-Rad). Real-time PCR was performed as described previously (Jourdan, et al. 2010 Diabetes 59:926-934) in a 96-well plate using a STEPONEPLUS™ real time PCR system (Applied Biosystems). QUANTITECT™ Primer Assays were used to detect gene expression (Table 3, which lists the primers used for rat and mice (tissue)). […]

The subject of data set [1] is Zucker diabetic fatty (ZDF) rats. Briefly: 10-day i.p. treatment of ZDF rats with glucan-encapsulated CB1R siRNA (GeRPs). It counts as in vivo, rat. Conditions: daily i.p. GeRPs for 10 days. How it is done:
Blood glucose levels were determined using the Elite glucometer (Bayer, Pittsburgh, Pa.). […] Plasma insulin was measured using the Ultra Sensitive rat Insulin ELISA kit (Crystal Chem Inc). Hemoglobin A1c was determined using the Rat Hemoglobin A1c (HbA1c) assay kit (Crystal Chem) and c-peptide was quantified by ELISA (C-peptide (rat) ELISA, ALPCO). Serum leptin and adiponectin were determined by ELISA (B-Bridge International). α-amylase, lipase, and uric acid concentrations were determined using commercially available colorimetric kits (BioAssay Systems). TNF-α and IL-1β were determined using TNF-α ELISA Kit (for Lysates) (RayBiotech, Inc.) and IL1β Rat ELISA Kit (Abeam), respectively.
Pancreas was fixed in 10% neutral buffered formalin (NBF), embedded in paraffin and sectioned ([…]) onto glass slides. […] For detection, secondary Ab coupled to FITC or PE were used (Table 2). Images were viewed with a Fluoview FV10i confocal microscope system (Olympus). Images were then analyzed using image J software and the presence or absence of co-localization was assessed by calculating the Pearson's coefficient.
Fluorescein (FITC)-labeled glucan shells were prepared as previously described (Tesz, et al. 2011 Biochemical Journal 436:351-362). To prepare a GeRP dose for one rat, 50 nmoles siRNA (Dharmacon) were incubated with 500 nmoles Endo-Porter (Gene Tools) in 30 mM sodium acetate pH 4.8 for 15 min at RT in a final volume of 200 μl. The siRNA/Endo-Porter solution was added to 10 mg ([…]) of FITC-glucan shells and then vortexed and incubated for 1 hour. The siRNA loaded GeRPs were then resuspended in 5 ml PBS and sonicated to ensure homogeneity of the GeRP preparation. […]
Total mRNA from the liver, pancreas and kidney were extracted with Trizol (Invitrogen), while total mRNA from cells was extracted using RNEASY™ Mini Kit (Qiagen). […] QUANTITECT™ Primer Assays were used to detect gene expression (Table 3, which lists the primers used for rat and mice (tissue)). […]

For the next data set, the system named is CB2R mRNA. In words: siRNA specificity: CB2 receptor expression in peritoneal elicited macrophages (PEC). It counts as cell-based, rat. Conditions: thioglycollate-induced PEC. How it is done:
The specificity of each siRNA was measured in terms of knockdown of CB2 receptor expression, and a dose-response analysis of siRNA C was carried out.
as §1
Total mRNA from the liver, pancreas and kidney were extracted with Trizol (Invitrogen), while total mRNA from cells was extracted using RNEASY™ Mini Kit (Qiagen). All extractions were followed by DNase I treatment (Invitrogen). Total mRNA was reverse-transcribed using the ISCRIPT™ cDNA kit (Bio-Rad). […] QUANTITECT™ Primer Assays were used to detect gene expression (Table 3, which lists the primers used for rat and mice (tissue)). […]

For the substance “sense GCAUCAAGAGCACCGUUAAUU (SEQ ID NO: 9), antisense UUAACGGUGCUCUUGAUGCUU (SEQ ID NO: 10) (listed as RNA, chemistry not given here) [siRNA C, siRNA directed against rat CB1R, selected for in vivo use]”, in the data set with CB1R mRNA (rat CB1R siRNAs A-D), the “degree of knockdown among the four siRNA sequences” value is listed as “greatest degree of knockdown”. Further, the “suppression of CB1R mRNA” value with CB1R mRNA (thioglycollate-induced PEC, 48 h, dose-dependent, preliminary experiments) is over 95%. In data set [1], the glycemia and insulinemia entry is “remained normoglycemic and hyperinsulinemic”; the “insulin expression and content in islets” value is listed as “increased”; the “macrophage infiltration and expression of Nlrp3-ASC, IL-1β, IL-18, MCP-1 and CB1R” value is “decreased”. In addition, in the data set with CB2R mRNA, the “CB2R mRNA” value was “no change”.
